Data published in article PMC10544015 (Journal of Medicinal Chemistry, 2023).
Values belong to the compound of their own block, whether it stands above or below them. Bridge positions count the residues as written; N and C are the ends. Square brackets hold non-standard residues; d marks the D form. Triazole bridges read from a SMILES are 1,4-linked. Peptide text beside a SMILES is read from it. Lys(N3) = [N-]=[N+]=NCCCC[C@H](N)C(=O)O; Pra = C#CC[C@H](N)C(=O)O; Ahx = NCCCCCC(=O)O

How the values were obtained:
[1] = circular dichroism; conditions: PBS (10 mM phosphate, 137 mM NaCl, 2.7 mM KCl); pH 7.4; rt °C; 100 uM
[2] = Water solubility (observation); assay type: physicochemical
[3] = In vitro proteolytic stability in human plasma; assay type: in vitro ADME
Protocol: The proteolytic stability of the peptides was determined through in vitro stability assays in human plasma, as previously reported.[31],[89] Briefly, a stock solution of the peptide was prepared at a concentration of 1–2 mm in Milli-Q water and was used for further dilutions. Prior to the actual stability testing, the selectivity of the assay and stability of the working solutions were evaluated in parallel with an assessment of the linearity, accuracy, and precision of the method using three separately prepared calibration curves. The samples were analyzed by RP-HPLC on an Agilent 1200 series gradient HPLC system in combination with an EC HPLC column EC 150/2 NUCLEODUR (C18 HTec, 3 μm length: 150 mm, ID: 2 mm. Macherey-Nagel). The half-lives of the peptides were calculated by interpolating the data based on the obtained calibration curve. Afterward, the log concentrations as a function of time were transferred to a semi-log chart. Metabolites were identified by reanalyzing the samples using LC-MS on the same system previously described.[31]

[4] = molecular target: T1, Panx1 channels (Homo sapiens, UniProt Q96RD7); experiment: HOS-induced ATP release assay in EA.hy926 endothelial cells; assay type: cell-based; conditions: for inhibition at 100 µM: EA.hy 926, read-out: % ATP release inhibition at 100µM (in EA.hy926 cells)
T1 construct: host or cells: EA.hy926 human endothelial cells
T1 sequence (Q96RD7 whole entry): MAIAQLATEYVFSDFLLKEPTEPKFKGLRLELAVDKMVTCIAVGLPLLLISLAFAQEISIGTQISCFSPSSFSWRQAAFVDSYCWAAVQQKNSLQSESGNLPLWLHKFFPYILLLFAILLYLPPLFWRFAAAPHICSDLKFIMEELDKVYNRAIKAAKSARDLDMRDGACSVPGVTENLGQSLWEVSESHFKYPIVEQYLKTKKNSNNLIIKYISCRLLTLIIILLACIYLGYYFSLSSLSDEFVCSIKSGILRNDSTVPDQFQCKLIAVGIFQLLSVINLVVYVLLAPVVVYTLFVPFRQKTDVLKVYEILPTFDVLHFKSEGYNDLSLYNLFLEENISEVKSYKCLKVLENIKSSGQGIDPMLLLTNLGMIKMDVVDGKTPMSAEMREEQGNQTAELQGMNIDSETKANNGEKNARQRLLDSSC
Protocol: Similar to B16-BL6 cells, a 2–3-fold enhancement of ATP release from EA.hy926 cells was observed upon HOS stimulation (Figure 7E). However, the absolute levels of ATP release were lower in these endothelial cells (around 300 vs 500–600 nM in B16-BL6 cells). As expected, Pbn reduced HOS-induced ATP release from EA.hy926 cells, albeit by a lower fraction than the one observed in B16-BL6 cells (Figure 7E vs7A). The reason for this different efficacy of Pbn is unknown but may be due to its nonspecific action on other ATP release channels or transporters,[68] of which the expression naturally varies among different cell types. […] The water-soluble double-stapled ^10Panx1 peptidomimetic SBL-PX1-206 reduced HOS-induced ATP release from EA.hy926 cells by about 25% at 12.5 μM. […] Stapled and double-stapled ^10Panx1 analogues were also not cytotoxic when tested at 100 and 12.5 μM in EA.hy926 cells (Supporting Information, Figure S8).
(§1) Triplicates were performed for each independent experiment.

[5] = molecular target: T2, Panx1 channels (Mus musculus, UniProt Q9JIP4); experiment: HOS-induced ATP release assay in B16-BL6 cells; conditions: for inhibition at 100 µM: B16-BL6, read-out: % ATP release inhibition at 100µM (in B16-BL6 cells)
T2 sequence (Q9JIP4 whole entry): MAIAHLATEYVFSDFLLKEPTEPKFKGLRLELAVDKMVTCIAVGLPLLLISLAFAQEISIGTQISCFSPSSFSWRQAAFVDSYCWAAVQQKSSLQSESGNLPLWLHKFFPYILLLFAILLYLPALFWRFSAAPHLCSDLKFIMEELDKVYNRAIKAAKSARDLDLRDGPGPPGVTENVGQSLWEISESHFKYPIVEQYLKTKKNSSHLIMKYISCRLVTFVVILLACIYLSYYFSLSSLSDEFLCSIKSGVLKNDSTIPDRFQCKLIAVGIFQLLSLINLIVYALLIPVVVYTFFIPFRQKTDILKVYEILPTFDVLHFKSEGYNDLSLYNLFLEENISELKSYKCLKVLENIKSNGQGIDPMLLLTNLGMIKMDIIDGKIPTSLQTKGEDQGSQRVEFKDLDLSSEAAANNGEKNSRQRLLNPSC

[6] = molecular target: T2, Panx1 channels; experiment: Yo-Pro-1 dye uptake assay in B16-BL6 cells; assay type: cell-based; conditions: for decrease of HOS-induced Yo-Pro-1 uptake: 100 µM, 30 min HOS
Protocol: The ability of the two previously identified lead compounds, SBL-PX1–42 and SBL-PX1-44, to affect the cellular uptake of ions and small molecules through Panx1 channels was evaluated in Yo-Pro-1 uptake assays. Yo-Pro-1 is a small fluorescent dye of 629 Da able to diffuse into cells through open Panx1 channels and emit green fluorescence when binding to nucleic acids in the cells.[66],[67] A representative example showing Yo-Pro-1 uptake over time is given in the Supporting Information (Figure S4). As expected, HOS induced a rapid Yo-Pro-1 uptake, which continued to increase gradually over time. […] While a small nonsignificant inhibition (14%) of Yo-Pro-1 uptake was observed when cells were exposed to 100 μM of ^10Panx1, the same concentration of the SBL-PX1-42 or SBL-PX1-44 analogues decreased Yo-Pro-1 uptake by 26 and 27%, respectively (Figure 3E). […] Among other possibilities, the reduced efficacy of the peptidomimetics in Yo-Pro-1 uptake assays, as compared to ATP release assays, may be attributed to the difference in size between ATP and Yo-Pro-1 or to the different repartition of charges in the two molecules.
B16-BL6 cells were plated on 96-well plates and grown until confluency. […] Cells were then incubated in the HOS solution containing the aforementioned compounds. Yo-Pro-1 (5 μM, Life Technologies) was added to the cells, and fluorescence was continuously recorded for 30 min with FDSS/μCELL Functional Drug Screening System (Hamamatsu Photonics). Yo-Pro-1 uptake in each condition was expressed as a percentage of HOS-induced Yo-Pro-1 uptake. […] Triplicates were performed for each independent experiment.

[7] = test system: H9c2 cells; experiment: ATP release assay in Panx1-lacking H9c2 cells (specificity); assay type: cell-based, rat; conditions: peptides 100 or 12.5 µM, Pbn 2.5 mM, 30 min HOS
Text: The cardiomyoblast cell line (H9c2) was chosen to assess the specificity of the stapled ^10Panx1 analogues. Panx1 mRNA was not found in undifferentiated H9c2 cells or after differentiation into cardiomyocyte-like cells, while it was readily detected in our positive controls (kidney and liver samples; Supporting Information, Figure S5B). The absence of Panx1 protein expression was confirmed by Western blot analysis in both undifferentiated and differentiated H9c2 cells (Supporting Information, Figure S5C) as well as by immunostaining on H9c2 cells (Supporting Information, Figure S5D). […] Of note, the low concentration of ATP release in H9c2 cells compared to B16-BL6 cells (47 vs 513 nM, respectively, see dotted line in Supporting Information, Figure S5E) cannot be attributed to low cellular content of the metabolite because a high level of ATP was found in the supernatant (1170 nM) when cells were lysed with Triton X-100.
as §1

[8] = test system: B16-BL6 cells; experiment: LDH cytotoxicity assay in B16-BL6 cells; assay type: cell-based, mouse; conditions: peptides 100 to 6.25 µM, Pbn 2.5 mM, HOS solution
[9] = Circular dichroism spectroscopy (helicity); assay type: physicochemical; conditions: PBS, 20 to 90 °C
Protocol: Spectra were measured with a JASCO J-715 CD spectropolarimeter equipped with a temperature controller using a 1 mm path length quartz cuvette and a scan rate of […]. The spectra were recorded in the wavelength range of 190–260 nm with a resolution and a bandwidth of 0.5 and 1.0 nm, respectively. The sensitivity and scan rate of the spectrometer were set to 100 mdeg and 50 nm min^–1, respectively. Samples were prepared in phosphate-buffered saline (PBS, 10 mM phosphate, 137 mM sodium chloride, 2.7 mM potassium chloride, pH 7.4, at room temperature) to the final concentration of 100 μM with or without 2,2,2-trifluoroethanol (TFE). CD spectra were averaged over 3–5 scans with the baseline subtracted from analogous conditions as those for the samples and converted to the mean residue ellipticity. Helicity was calculated as previously reported (see the Supporting Information).[52]

Compound: CC(C)[C@@H]1NC(=O)[C@H](Cc2ccccc2)NC(=O)[C@@H](NC(=O)[C@@H]2CCCCn3cc(nn3)C[C@H](NC(=O)CCCCCNC(=O)[C@@H](N)CCCCN)C(=O)N[C@@H](Cc3c[nH]c4ccccc34)C(=O)N[C@@H](CCCNC(=N)N)C(=O)N[C@@H](CCC(N)=O)C(=O)N2)Cc2cn(nn2)CCCC[C@@H](C(=O)N[C@@H](Cc2ccc(O)cc2)C(N)=O)NC(=O)[C@H](CC(=O)O)NC1=O [SBL-PX1-206] (H-K[Ahx][Pra]WRQ[Lys(N3)][Pra]FVD[Lys(N3)]Y-NH2; triazole 3-7, 8-12 (inferred))
helicity [1]: 44%
water solubility [2]: water-soluble
only identified metabolite (lysine of solubilizing tail cleaved) present in solution ([3]; after 24 h, human plasma, 37 °C): around 80%
reduction of HOS-induced ATP release from EA.hy926 cells ([4]; 12.5 µM): about 25%
inhibition at 100 µM [4]: 15%

reduction of HOS-induced ATP release ([5]; 2.5 mM, B16-BL6 cells, 30 min HOS): 61%
reduction of HOS-induced ATP release from EA.hy926 cells ([4]; 2.5 mM): around 35%
Compound: CCCN(CCC)S(=O)(=O)c1ccc(C(=O)O)cc1 [Pbn, probenecid, reference compound]
inhibition of Yo-Pro-1 uptake ([6]; 2.5 mM, 30 min): final lower level than the basal Tyrode conditions
inhibition of ATP release in H9c2 cells [7]: No inhibition
cytotoxicity (extracellular LDH) [8]: no cytotoxicity

Compound: CC(=O)N[C@H]1Cc2cn(nn2)CCCC[C@@H](C(=O)N[C@@H](C)C(=O)N[C@@H](Cc2ccccc2)C(=O)N[C@H](C(=O)N[C@@H](CC(=O)O)C(=O)N[C@@H](CO)C(=O)N[C@@H](Cc2ccc(O)cc2)C(N)=O)C(C)C)NC(=O)[C@H](CCC(N)=O)NC(=O)[C@H](CCCNC(=N)N)NC(=O)[C@H](Cc2c[nH]c3ccccc23)NC1=O [SBL-PX1-44]
helicity [1]: 41%
inhibition at 100 µM [5]: 33%
decrease of HOS-induced Yo-Pro-1 uptake [6]: 27%
fold longer half-life in human plasma compared to ^10Panx1 [3]: 30 fold
half-life t1/2 in human plasma ([3]; 37 °C): 1.04 ± 0.0418 h
cytotoxicity (extracellular LDH) [8]: no cytotoxicity
inhibition at 100 µM [4]: 41%

Compound: CC(=O)N[C@@H](CO)C(=O)N[C@@H](Cc1c[nH]c2ccccc12)C(=O)N[C@@H](CCCNC(=N)N)C(=O)N[C@@H](CCC(N)=O)C(=O)N[C@@H](C)C(=O)N[C@H]1Cc2cn(nn2)CCCC[C@@H](C(=O)N[C@@H](Cc2ccc(O)cc2)C(N)=O)NC(=O)[C@H](CC(=O)O)NC(=O)[C@H](C(C)C)NC(=O)[C@H](Cc2ccccc2)NC1=O [SBL-PX1-42]
helicity [1]: 56%
inhibition at 100 µM [5]: 39%
decrease of HOS-induced Yo-Pro-1 uptake [6]: 26%
fold longer half-life in human plasma compared to ^10Panx1 [3]: 30 fold
half-life t1/2 in human plasma ([3]; 37 °C): 1.102 ± 0.00867 h
cytotoxicity (extracellular LDH) [8]: no cytotoxicity
inhibition at 100 µM [4]: 26%
thermal stability of α-helical profile (CD at varying temperatures) [9]: high thermal stability
